≈ marks a conversion by molar mass, not a printed value. Calls of active or inactive are those of the source. The rule behind the calls is not given here.

Assay [1] deals with Staphylococcus aureus. As to the kind of experiment: Antibacterial activity against Staphylococcus aureus ATCC 25923 after 24 hrs by two-fold microbroth dilution method. The format is functional. To be noted: ATCC 25923, 24 h. A general note: Dilution methods test growth across graded concentrations, often in twofold steps.
The species entered for assay [2] is Bos taurus. As to the kind of experiment: Induction of calf thymus DNA intercalation assessed as compound-DNA complex formation at 5 x 10^-5mol/L by fluorescence spectroscopic method.
The test system of another assay is HEp-2. The experiment in a line: Cytotoxicity against human Hep2 cells assessed as cell viability up to 125 ug/ml after 24 hrs by CCK8 assay relative to control. It counts as functional. (Formazan colour is commonly taken as a measure of viable cells.)
For assay [3], the species on record is Bos taurus. The experiment in a line: Binding affinity to calf thymus DNA by UV-vis absorption spectra analysis.
Assay [4] deals with Staphylococcus aureus. The experiment in a line: Antibacterial activity against methicillin-resistant Staphylococcus aureus N315 after 24 hrs by two-fold microbroth dilution method. It counts as functional. To be noted: N315, 24 h.
The next assay relates to Pichia norvegensis. As to the kind of experiment: Antifungal activity against Candida mycoderma ATCC 9888 after 24 hrs by two-fold microbroth dilution method. The format is functional. To be noted: ATCC 9888, 24 h.
A further assay relates to Escherichia coli. As to the kind of experiment: Antibacterial activity against Escherichia coli JM109 after 24 hrs by two-fold microbroth dilution method. The format is functional. To be noted: JM109, 24 h.
A further assay deals with Micrococcus luteus. As to the kind of experiment: Antibacterial activity against Micrococcus luteus ATCC 4698 after 24 hrs by two-fold microbroth dilution method. It counts as functional. To be noted: NCTC 2665, 24 h.
A further assay has as its system Cyberlindnera jadinii. As to the kind of experiment: Antifungal activity against Candida utilis ATCC 9950 after 24 hrs by two-fold microbroth dilution method. It counts as functional. To be noted: Williopsis jadinii, ATCC 9950, 24 h.
Assay [5] in a line: Antibacterial activity against Eberthella typhosa ATCC 14028 after 24 hrs by two-fold microbroth dilution method. It counts as functional. To be noted: ATCC 14028, 24 h.
Another assay concerns Aspergillus flavus. As to the kind of experiment: Antifungal activity against Aspergillus flavus ATCC 204304 after 24 hrs by two-fold microbroth dilution method. To be noted: ATCC 204304, 24 h. It counts as functional.
The next assay concerns Bacillus spizizenii. As to the kind of experiment: Antibacterial activity against Bacillus subtilis ATCC 6633 after 24 hrs by two-fold microbroth dilution method. The format is functional. To be noted: ATCC 6633, 24 h.
The subject of the next assay is Bacillus. The experiment in a line: Antibacterial activity against Bacillus proteus ATCC 13315 after 24 hrs by two-fold microbroth dilution method. It counts as functional. To be noted: ATCC 13315, 24 h.
Assay [6] deals with Staphylococcus aureus. The experiment in a line: Potency index, ratio of chloromycin MIC to compound MIC for methicillin-resistant Staphylococcus aureus N315. The format is functional.
The next assay deals with Candida albicans. The experiment in a line: Antifungal activity against Candida albicans ATCC 10231 after 24 hrs by two-fold microbroth dilution method. It counts as functional. To be noted: ATCC 10231, 24 h.
The species named for assay [7] is Bos taurus. The experiment in a line: Induction of calf thymus DNA intercalation assessed as inhibition of neutral red binding to DNA by UV-vis absorption spectra analysis.
The species entered for assay [8] is Bos taurus. As to the kind of experiment: Binding affinity to calf thymus DNA assessed as hypochromic effect by UV-vis absorption spectra analysis.
The test system of assay [9] is Staphylococcus aureus. The experiment in a line: Potency index, ratio of norfloxacin MIC to compound MIC for methicillin-resistant Staphylococcus aureus N315. It counts as functional.
For assay [10], the system named is Pseudomonas aeruginosa. The experiment in a line: Antibacterial activity against Pseudomonas aeruginosa ATCC 27853 after 24 hrs by two-fold microbroth dilution method. To be noted: ATCC 27853, 24 h. It counts as functional.
The test system of a further assay is Saccharomyces cerevisiae. The experiment in a line: Antifungal activity against Saccharomyces cerevisiae ATCC 9763 after 24 hrs by two-fold microbroth dilution method. It counts as functional. To be noted: ATCC 9763, 24 h.
Assay [11] has as its system Pseudomonas aeruginosa. As to the kind of experiment: Potency index, ratio of chloromycin MIC to compound MIC for Pseudomonas aeruginosa ATCC 27853. It counts as functional.

For `CCCCCCCn1c2ccc(-c3csc(N)n3)cc2c2cc(-c3csc(N)n3)ccc21`, the MIC (usually the lowest concentration that inhibits growth of the organism) worked out at 16 µg/mL (≈ 34.7 µM) against Staphylococcus aureus [1]; 4 µg/mL (≈ 8.66 µM) against Staphylococcus aureus [4]; 64 µg/mL (≈ 139 µM) against Pichia norvegensis; 128 µg/mL (≈ 277 µM) in the assay with Escherichia coli; 64 µg/mL (≈ 139 µM) in the assay on Micrococcus luteus; 256 µg/mL (≈ 555 µM) with Cyberlindnera jadinii. Further, the MIC amounted to 128 µg/mL (≈ 277 µM) in [5]; 256 µg/mL (≈ 555 µM) in the assay on Aspergillus flavus; 256 µg/mL (≈ 555 µM) in the assay with Bacillus spizizenii; 256 µg/mL (≈ 555 µM) with Bacillus; 128 µg/mL (≈ 277 µM) with Candida albicans; 128 µg/mL (≈ 277 µM) against Pseudomonas aeruginosa [10]. For the same compound, in the assay with Saccharomyces cerevisiae, the MIC amounted to 128 µg/mL (≈ 277 µM). Also, in the assay filed under Bos taurus [2], the result was Active. Moreover, the Activity in the assay on HEp-2 is 85%; in the assay filed under Bos taurus [8] it was “Dose-dependent effect”. Besides, the K in the assay filed under Bos taurus [3] was 2.71 ×10⁴ L/mol. For the same compound, the values for the Ratio in the assay with Staphylococcus aureus [6] and in the assay on Staphylococcus aureus [9] were 16 and 2, respectively. In addition, the inhibition result in the assay listed under Bos taurus [7] is “Dose-dependent effect”.
Take `CCCCCn1c2ccc(-c3csc(N)n3)cc2c2cc(-c3csc(N)n3)ccc21`: the MIC turned out to be 64 µg/mL (≈ 148 µM) against Staphylococcus aureus [1]; 128 µg/mL (≈ 295 µM) against Staphylococcus aureus [4]; 64 µg/mL (≈ 148 µM) against Pichia norvegensis; 256 µg/mL (≈ 590 µM) with Escherichia coli; 64 µg/mL (≈ 148 µM) in the assay with Micrococcus luteus; 128 µg/mL (≈ 295 µM) with Cyberlindnera jadinii. Moreover, the MIC in [5] turned out to be 128 µg/mL (≈ 295 µM); against Aspergillus flavus it was 256 µg/mL (≈ 590 µM); against Bacillus spizizenii it was 256 µg/mL (≈ 590 µM); against Bacillus, 256 µg/mL (≈ 590 µM); with Candida albicans, 128 µg/mL (≈ 295 µM); against Pseudomonas aeruginosa [10], 2 µg/mL (≈ 4.61 µM). In the assay with Saccharomyces cerevisiae, this compound registered an MIC of 128 µg/mL (≈ 295 µM). The Ratio with Pseudomonas aeruginosa [11] is 8. Further, the Activity in the assay on HEp-2 was 85%.

For the origin of these results see ChEMBL document CHEMBL3994568 (2016).
